Values quoted from earlier work in US7993390B2, “Implantable or insertable medical device resistant to microbial growth and biofilm formation” (Boston Scientific Scimed, Inc., priority 2002, dated 2011).

Test system: most gram positive and gram negative aerobic and anaerobic bacteria, some yeast and fungi
Conditions: most organisms tested

For `Oc1cc(Cl)ccc1Oc1ccc(Cl)cc1Cl` [triclosan], the MIC is listed as < 0.3 ppm.
